Source: US20230148214A1, “INDAZOLES AND AZAINDAZOLES AS LRRK2 INHIBITORS” (ESCAPE Bio, Inc., priority 2020, published 2023)

What was measured:
LRRK2 G2019S = target: T1, LRRK2 G2019S (Homo sapiens, UniProt Q5S007, G2019S); assay: LRRK2 Kinase Activity Assay (LanthaScreen TR-FRET), G2019S; assay type: biochemical; settings: recombinant G2019S-LRRK2, 25 μM ATP, 400 nM LRRKtide, 60 min; class symbols
T1 construct: purchased Life Technologies PV4881
Protocol: (§1) LRRK2 kinase activity was measured using a LanthaScreen™ Kinase Activity Assay from ThermoFisher Scientific. Recombinant wild type or G2019S-LRRK2 protein (Life Technologies, PR8604B or PV4881, respectively), was incubated with a fluorescein-labeled peptide substrate called LRRKtide that is based upon ezrin/radixin/moesin (ERM) (Life Technologies, PV4901) in the presence of ATP and serially diluted compound. […] Compound-dependent inhibition of the TR-FRET signal was used to generate a concentration-response curve for IC50 determination.
(§2) After 60 min incubation at room temperature, the reaction was stopped by addition of 10 μL of 2×stop solution containing a final concentration of 2 nM anti-pERM antibody and 10 mM EDTA.

LRRK2 WT = target: T2, LRRK2 WT (Homo sapiens, UniProt Q5S007); assay: LRRK2 Kinase Activity Assay (LanthaScreen TR-FRET), wild type; assay type: biochemical; settings: recombinant wild type LRRK2, 25 μM ATP, 400 nM LRRKtide, 60 min; class symbols
T2 construct: purchased Life Technologies PR8604B
Protocol: as §1, §2

T1 sequence (Q5S007 whole entry G2019S): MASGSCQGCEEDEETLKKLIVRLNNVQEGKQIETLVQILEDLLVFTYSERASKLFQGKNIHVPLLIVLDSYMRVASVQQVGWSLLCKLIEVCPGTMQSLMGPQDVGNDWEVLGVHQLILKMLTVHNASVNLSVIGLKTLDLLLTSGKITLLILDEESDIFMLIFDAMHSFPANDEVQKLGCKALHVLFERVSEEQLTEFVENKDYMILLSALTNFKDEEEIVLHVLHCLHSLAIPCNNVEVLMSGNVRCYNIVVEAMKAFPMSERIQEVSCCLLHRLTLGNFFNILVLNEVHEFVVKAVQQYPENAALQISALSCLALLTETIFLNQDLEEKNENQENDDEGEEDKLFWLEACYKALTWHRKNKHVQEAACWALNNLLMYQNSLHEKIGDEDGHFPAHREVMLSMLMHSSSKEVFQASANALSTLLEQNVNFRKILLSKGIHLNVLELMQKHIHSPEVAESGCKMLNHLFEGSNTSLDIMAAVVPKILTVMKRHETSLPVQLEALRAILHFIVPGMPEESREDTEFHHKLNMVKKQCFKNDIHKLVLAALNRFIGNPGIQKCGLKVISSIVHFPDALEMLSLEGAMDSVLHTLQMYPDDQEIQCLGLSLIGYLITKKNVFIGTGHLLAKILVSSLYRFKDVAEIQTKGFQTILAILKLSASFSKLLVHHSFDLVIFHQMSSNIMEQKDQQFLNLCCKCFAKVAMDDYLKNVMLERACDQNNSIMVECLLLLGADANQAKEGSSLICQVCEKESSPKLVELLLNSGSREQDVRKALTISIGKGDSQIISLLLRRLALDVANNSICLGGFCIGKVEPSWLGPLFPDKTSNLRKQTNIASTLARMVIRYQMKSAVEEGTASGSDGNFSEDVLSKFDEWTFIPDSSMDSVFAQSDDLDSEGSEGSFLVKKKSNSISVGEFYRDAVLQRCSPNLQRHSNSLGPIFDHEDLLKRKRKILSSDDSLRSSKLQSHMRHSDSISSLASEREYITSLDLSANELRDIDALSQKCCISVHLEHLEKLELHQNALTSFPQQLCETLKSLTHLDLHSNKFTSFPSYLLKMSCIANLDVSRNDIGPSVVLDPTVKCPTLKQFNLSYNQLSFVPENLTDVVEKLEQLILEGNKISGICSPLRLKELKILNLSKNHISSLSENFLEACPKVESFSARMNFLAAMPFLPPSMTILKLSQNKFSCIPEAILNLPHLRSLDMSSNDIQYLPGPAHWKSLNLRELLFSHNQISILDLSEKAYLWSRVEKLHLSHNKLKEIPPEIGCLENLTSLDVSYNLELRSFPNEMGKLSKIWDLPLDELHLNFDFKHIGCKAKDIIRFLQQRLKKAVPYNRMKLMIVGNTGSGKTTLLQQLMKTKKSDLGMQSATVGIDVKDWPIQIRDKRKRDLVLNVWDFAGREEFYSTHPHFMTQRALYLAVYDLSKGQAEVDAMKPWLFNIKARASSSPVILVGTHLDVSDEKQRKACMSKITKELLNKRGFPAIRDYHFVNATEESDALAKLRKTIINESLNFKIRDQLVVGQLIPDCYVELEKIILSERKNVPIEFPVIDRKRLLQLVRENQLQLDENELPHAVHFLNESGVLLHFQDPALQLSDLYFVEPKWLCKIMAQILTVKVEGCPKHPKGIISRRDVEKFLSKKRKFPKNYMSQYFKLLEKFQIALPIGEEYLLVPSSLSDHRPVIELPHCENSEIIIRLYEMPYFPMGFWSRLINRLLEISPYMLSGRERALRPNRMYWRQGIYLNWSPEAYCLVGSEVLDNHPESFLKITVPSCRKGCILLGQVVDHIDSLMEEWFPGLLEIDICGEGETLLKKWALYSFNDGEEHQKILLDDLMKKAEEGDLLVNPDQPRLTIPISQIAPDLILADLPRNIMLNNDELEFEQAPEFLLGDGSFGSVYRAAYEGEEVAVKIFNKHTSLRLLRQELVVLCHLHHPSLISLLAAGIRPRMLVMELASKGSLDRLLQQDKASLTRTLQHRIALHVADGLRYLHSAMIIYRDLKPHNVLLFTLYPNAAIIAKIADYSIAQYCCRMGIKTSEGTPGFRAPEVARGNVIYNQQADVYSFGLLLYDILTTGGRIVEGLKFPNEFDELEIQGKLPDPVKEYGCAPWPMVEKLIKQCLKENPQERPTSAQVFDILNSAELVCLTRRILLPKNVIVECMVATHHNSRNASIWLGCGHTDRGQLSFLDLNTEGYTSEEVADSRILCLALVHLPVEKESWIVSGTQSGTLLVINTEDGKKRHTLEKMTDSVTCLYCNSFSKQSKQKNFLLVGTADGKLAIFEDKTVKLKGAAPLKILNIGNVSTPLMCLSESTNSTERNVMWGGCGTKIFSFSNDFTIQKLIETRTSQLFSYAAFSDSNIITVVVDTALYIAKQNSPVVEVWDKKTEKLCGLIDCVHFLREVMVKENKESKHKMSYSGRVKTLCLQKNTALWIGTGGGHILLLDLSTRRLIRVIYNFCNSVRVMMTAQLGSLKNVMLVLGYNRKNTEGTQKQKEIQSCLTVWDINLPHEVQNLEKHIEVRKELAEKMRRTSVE
T2 sequence (Q5S007 whole entry): as the sequence (Q5S007 whole entry G2019S) above, with S2019G counted along it

Row | IC50 (LRRK2 G2019S) [nM] | IC50 (LRRK2 WT) [nM] | SMILES
1 | < 100 | 100 to 1000 | C[C@H]1CCc2cc(C#N)ccc2[C@H]1Oc1ccc2[nH]nc(-c3cnco3)c2c1 (single isomer, unassigned) [175, enantiomer 1, cis-6-Methyl-5-[[3-(1,3-oxazol-5-yl)-1H-indazol-5-yl]oxy]-5,6,7,8-tetrahydronaphthalene-2-carbonitrile]
2 | < 100 | 100 to 1000 | C[C@H]1CCc2cc(C#N)ccc2[C@H]1Oc1ccc2[nH]nc(-c3cnco3)c2c1 (single isomer, unassigned) [175, enantiomer 2, cis-6-Methyl-5-[[3-(1,3-oxazol-5-yl)-1H-indazol-5-yl]oxy]-5,6,7,8-tetrahydronaphthalene-2-carbonitrile]
3 | < 100 | 100 to 1000 | C[C@@H]1CCc2cc(C#N)ccc2[C@H]1Oc1ccc2[nH]nc(-c3cnco3)c2c1 (single isomer, unassigned) [176, enantiomer 1, trans-6-Methyl-5-[[3-(1,3-oxazol-5-yl)-1H-indazol-5-yl]oxy]-5,6,7,8-tetrahydronaphthalene-2-carbonitrile]
4 | < 100 | < 100 | C[C@@H]1CCc2cc(C#N)ccc2[C@H]1Oc1ccc2[nH]nc(-c3cnco3)c2c1 (single isomer, unassigned) [176, enantiomer 2, trans-6-Methyl-5-[[3-(1,3-oxazol-5-yl)-1H-indazol-5-yl]oxy]-5,6,7,8-tetrahydronaphthalene-2-carbonitrile]
5 | < 100 | < 100 | N#Cc1cc2c(nc1Cl)[C@@H](Oc1ccc3[nH]nc(-c4cnco4)c3c1)CCC2 (single isomer, unassigned) [177, enantiomer 1, 2-Chloro-8-((3-(oxazol-5-yl)-1H-indazol-5-yl)oxy)-5,6,7,8-tetrahydroquinoline-3-carbonitrile]
6 | < 100 | < 100 | N#Cc1cc2c(nc1Cl)[C@@H](Oc1ccc3[nH]nc(-c4cnoc4)c3c1)CCC2 (single isomer, unassigned) [178, enantiomer 1, 2-Chloro-8-[[3-(1,2-oxazol-4-yl)-1H-indazol-5-yl]oxy]-5,6,7,8-tetrahydroquinoline-3-carbonitrile]
7 | < 100 | < 100 | COc1nc2c(cc1C#N)CCC[C@@H]2Oc1ccc2[nH]nc(-c3cnco3)c2c1 (single isomer, unassigned) [179, enantiomer 1, 2-Methoxy-8-[[3-(1,3-oxazol-5-yl)-1H-indazol-5-yl]oxy]-5,6,7,8-tetrahydroquinoline-3-carbonitrile]
8 | 100 to 1000 | 100 to 1000 | COc1nc2c(cc1C#N)CCC[C@@H]2Oc1ccc2[nH]nc(-c3cnco3)c2c1 (single isomer, unassigned) [179, enantiomer 2, 2-Methoxy-8-[[3-(1,3-oxazol-5-yl)-1H-indazol-5-yl]oxy]-5,6,7,8-tetrahydroquinoline-3-carbonitrile]
9 | < 100 | < 100 | N#Cc1cc2c(cc1F)[C@@H](Oc1ccc3[nH]nc(-c4cnco4)c3c1)CCC2 (single isomer, unassigned) [180, enantiomer 1, 3-Fluoro-5-[[3-(1,3-oxazol-5-yl)-1H-indazol-5-yl]oxy]-5,6,7,8-tetrahydronaphthalene-2-carbonitrile]
10 | < 100 | < 100 | N#Cc1cc2c(nc1Cl)[C@@H](Oc1ccc3[nH]nc(C4CC4)c3c1)CCC2 (single isomer, unassigned) [181, enantiomer 1, 2-Chloro-8-[(3-cyclopropyl-1H-indazol-5-yl)oxy]-5,6,7,8-tetrahydroquinoline-3-carbonitrile]
11 | < 100 | 100 to 1000 | N#Cc1cc2c(nc1Cl)[C@@H](Oc1ccc3[nH]nc(C4CC4)c3c1)CCC2 (single isomer, unassigned) [181, enantiomer 2, 2-Chloro-8-[(3-cyclopropyl-1H-indazol-5-yl)oxy]-5,6,7,8-tetrahydroquinoline-3-carbonitrile]
12 | < 100 | < 100 | N#Cc1cnc2c(n1)CC[C@@H]2Oc1ccc2[nH]nc(-c3cnco3)c2c1 (single isomer, unassigned) [182, enantiomer 1, 5-((3-(Oxazol-5-yl)-1H-indazol-5-yl)oxy)-6,7-dihydro-5H-cyclopenta[b]pyrazine-2-carbonitrile]
13 | 100 to 1000 | 1000 to 10000 | Cc1c(C#N)c(Cl)nc2c1CCC[C@@H]2Nc1ccc2[nH]nc(C3CC3)c2c1 (single isomer, unassigned) [183, enantiomer 1, 2-Chloro-8-[(3-cyclopropyl-1H-indazol-5-yl)amino]-4-methyl-5,6,7,8-tetrahydroquinoline-3-carbonitrile]
14 | < 100 | < 100 | Cc1c(C#N)c(Cl)nc2c1CCC[C@@H]2Nc1ccc2[nH]nc(C3CC3)c2c1 (single isomer, unassigned) [183, enantiomer 2, 2-Chloro-8-[(3-cyclopropyl-1H-indazol-5-yl)amino]-4-methyl-5,6,7,8-tetrahydroquinoline-3-carbonitrile]
15 | < 100 | < 100 | Cc1c(C#N)c(Cl)nc2c1CCC[C@@H]2Oc1ccc2[nH]nc(C3CC3)c2c1 (single isomer, unassigned) [184, enantiomer 1, 2-Chloro-8-[(3-cyclopropyl-1H-indazol-5-yl)oxy]-4-methyl-5,6,7,8-tetrahydroquinoline-3-carbonitrile]
16 | < 100 | 1000 to 10000 | Cc1c(C#N)c(Cl)nc2c1CCC[C@@H]2Oc1ccc2[nH]nc(C3CC3)c2c1 (single isomer, unassigned) [184, enantiomer 2, 2-Chloro-8-[(3-cyclopropyl-1H-indazol-5-yl)oxy]-4-methyl-5,6,7,8-tetrahydroquinoline-3-carbonitrile]
17 | < 100 | < 100 | COc1n[nH]c2ccc(O[C@H]3CCc4cc(C#N)c(Cl)nc43)cc12 (single isomer, unassigned) [185, enantiomer 1, 2-Chloro-7-[(3-methoxy-1H-indazol-5-yl)oxy]-6,7-dihydro-5H-cyclopenta[b]pyridine-3-carbonitrile]
18 | 100 to 1000 |  | N#Cc1ccc2c(c1)CC[C@@H]2Oc1ccc2[nH]nc(C3CC3)c2c1 (single isomer, unassigned) [Example 124, enantiomer 2, 1-((3-Cyclopropyl-1H-indazol-5-yl)oxy)-2,3-dihydro-1H-indene-5-carbonitrile]
19 | 100 to 1000 |  | N#Cc1cnc2c(c1)CCC[C@@H]2Oc1ccc2[nH]nc(C3CC3)c2c1 (single isomer, unassigned) [Example 136, enantiomer 2, 8-((3-Cyclopropyl-1H-indazol-5-yl)oxy)-5,6,7,8-tetrahydroquinoline-3-carbonitrile]
20 | 1000 to 10000 |  | N#Cc1ccc2c(c1)CCCC2Nc1ccc2[nH]nc(C(F)(F)F)c2c1 (single isomer, unassigned) [Example 153, enantiomer 2, 5-((3-(Trifluoromethyl)-1H-indazol-5-yl)amino)-5,6,7,8-tetrahydronaphthalene-2-carbonitrile]
21 |  | < 100 | Cc1ncc(-c2n[nH]c3ccc(O[C@H]4CCc5cc(C#N)c(F)cc54)cc23)o1 (single isomer, unassigned) [Example 160, enantiomer 2, 6-Fluoro-1-((3-(2-methyloxazol-5-yl)-1H-indazol-5-yl)oxy)-2,3-dihydro-1H-indene-5-carbonitrile]
22 |  | < 100 | N#Cc1cnc2c(n1)CCC[C@@H]2Oc1ccc2[nH]nc(-c3cnco3)c2c1 (single isomer, unassigned) [Example 163, enantiomer 2, 5-[[3-(1,3-Oxazol-5-yl)-1H-indazol-5-yl]oxy]-5,6,7,8-tetrahydroquinoxaline-2-carbonitrile]
23 |  | < 100 | Cc1nc2c(c(C)c1C#N)CCC[C@@H]2Nc1ccc2[nH]nc(-c3cnco3)c2c1 (single isomer, unassigned) [Example 164, enantiomer 2, 2,4-Dimethyl-8-[[3-(1,3-oxazol-5-yl)-1H-indazol-5-yl]amino]-5,6,7,8-tetrahydroquinoline-3-carbonitrile]
24 |  | < 100 | COc1nc2c(c(C)c1C#N)CCC[C@@H]2Nc1ccc2[nH]nc(-c3cnco3)c2c1 (single isomer, unassigned) [Example 165, enantiomer 2, 2-Methoxy-4-methyl-8-[[3-(1,3-oxazol-5-yl)-1H-indazol-5-yl]amino]-5,6,7,8-tetrahydroquinoline-3-carbonitrile]
25 |  | < 100 | Cc1c(C#N)c(Cl)nc2c1CC[C@@H]2Oc1ccc2[nH]nc(-c3cnco3)c2c1 (single isomer, unassigned) [Example 166, enantiomer 2, 2-Chloro-4-methyl-7-[[3-(1,3-oxazol-5-yl)-1H-indazol-5-yl]oxy]-6,7-dihydro-5H-cyclopenta[b]pyridine-3-carbonitrile]
26 |  | < 100 | N#Cc1c(F)cc2c(c1F)CC[C@@H]2Oc1ccc2[nH]nc(-c3cnco3)c2c1 (single isomer, unassigned) [Example 167, enantiomer 2, 4,6-Difluoro-1-[[3-(1,3-oxazol-5-yl)-1H-indazol-5-yl]oxy]-2,3-dihydro-1H-indene-5-carbonitrile]
27 |  | < 100 | N#Cc1cc2c(nc1Cl)[C@@H](Oc1ccc3[nH]nc(-c4cnco4)c3c1)CC2 (single isomer, unassigned) [Example 171, enantiomer 2, 2-Chloro-7-[[3-(1,3-oxazol-5-yl)-1H-indazol-5-yl]oxy]-6,7-dihydro-5H-cyclopenta[b]pyridine-3-carbonitrile]
